# Patent US20260226068A1, “IMIDAZOTRIAZINE IL-17A MODULATORS AND USES THEREOF” (DICE ALPHA, INC., priority 2023, published 2026)
# How the values were obtained:
# IL-17A/A = molecular target: T1, IL-17A/A (Homo sapiens, UniProt Q16552); experiment: IL-17A/A HEK-Blue cell assay (SEAP reporter); type: cell-based; details: HEK-Blue IL-17A reporter cells, IL17A/A 5 ng/mL, 20 hours, SEAP read at A630; read-out: HEK-Blue IL17AA (IC50 for IL-17A/A inhibition)
# T1 construct: purchased Genscript Z03228
# T1 sequence (Q16552 24-155): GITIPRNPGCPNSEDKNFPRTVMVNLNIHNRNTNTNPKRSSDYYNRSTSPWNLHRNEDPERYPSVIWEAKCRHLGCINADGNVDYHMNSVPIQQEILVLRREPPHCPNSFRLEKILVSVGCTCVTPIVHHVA
# IL-17A/F = molecular target: T2, IL-17A/F (Homo sapiens, UniProt Q16552+Q96PD4); experiment: IL-17A/F HEK-Blue cell assay (SEAP reporter); type: cell-based; details: HEK-Blue IL-17A reporter cells, IL17A/F 5 ng/mL, 20 hours, SEAP read at A630; read-out: HEK-Blue IL17AF (IC50 for IL-17A/F inhibition)
# T2 construct: purchased R&D Systems
# T2 sequence (Q16552 24-155): T1 sequence (Q16552 24-155)
# T2 sequence (Q96PD4 31-163): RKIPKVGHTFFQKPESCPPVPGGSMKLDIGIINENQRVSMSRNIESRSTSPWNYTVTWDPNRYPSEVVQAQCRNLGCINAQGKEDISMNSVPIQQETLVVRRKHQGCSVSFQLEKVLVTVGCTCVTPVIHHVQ
IC50 (IL-17A/A) [nM],IC50 (IL-17A/F) [nM],SMILES
100 to 1000,> 1000,"CCn1nccc1C(=O)N[C@H](c1cn2nc(C[C@H]3C[C@@H](C(F)(F)F)CNC3=O)c(C3CCNCC3)nc2n1)C1CCC(F)(F)CC1 [Compound 299, N—((S)-(4,4-difluorocyclohexyl)(2-(((3R,5R)-2-oxo-5-(trifluoromethyl)piperidin-3-yl)methyl)-3-(piperidin-4-yl)imidazo[1,2-b][1,2,4]triazin-6-yl)methyl)-1-ethyl-1H-pyrazole-5-carboxamide]"
100 to 1000,> 1000,O=C(N[C@H](c1cn2nc(C[C@H]3C[C@H](C(F)(F)F)CNC3=O)cnc2n1)C1CCC(F)(F)CC1)c1nonc1C1CC1 [Compound 53]
< 100,< 100,"CCn1nccc1C(=O)N[C@H](c1cn2nc(C[C@H]3C[C@@H](C(F)(F)F)CNC3=O)c([C@@H]3CCCC(F)(F)C3)nc2n1)C1CCC(F)(F)CC1 (single isomer, unassigned) [Compound 272]"
< 100,100 to 1000,"CCn1nccc1C(=O)N[C@H](c1cn2nc(CC3C[C@@H](C(F)(F)F)CNC3=O)c(N3CC4CC(C3)O4)nc2n1)C1CCC(F)(F)CC1 (single isomer, unassigned) [Compound 81]"
< 100,100 to 1000,"CCn1nccc1C(=O)N[C@H](c1cn2nc(CC3C[C@@H](C(F)(F)F)CNC3=O)c(N3CCOCC3)nc2n1)[C@H]1CCCC(F)(F)C1 (single isomer, unassigned) [Compound 90]"
< 100,100 to 1000,"CCn1nccc1C(=O)N[C@H](c1cn2nc(C[C@H]3C[C@@H](C(F)(F)F)CNC3=O)c(N3CC4(CCOC4)C3)nc2n1)C1CCC(F)(F)CC1 [Compound 193, N—((S)-(4,4-difluorocyclohexyl)(2-(((3R,5R)-2-oxo-5-(trifluoromethyl)piperidin-3-yl)methyl)-3-(6-oxa-2-azaspiro[3.4]octan-2-yl)imidazo[1,2-b][1,2,4]triazin-6-yl)methyl)-1-ethyl-1H-pyrazole-5-carboxamide]"
< 100,< 100,"CCn1nccc1C(=O)N[C@H](c1cn2nc(C[C@H]3C[C@@H](C(F)(F)F)CNC3=O)c(C3CCC(F)(F)CC3)nc2n1)C1CCC(F)(F)CC1 [Compound 182, N-((1S)-(4,4-difluorocyclohexyl)(3-(4,4-difluorocyclohexyl)-2-(((3R,5R)-2-oxo-5-(trifluoromethyl)piperidin-3-yl)methyl)imidazo[1,2-b][1,2,4]triazin-6-yl)methyl)-1-ethyl-1H-pyrazole-5-carboxamide]"
< 100,100 to 1000,"O=C(N[C@H](c1cn2nc(C[C@H]3C[C@@H](C(F)(F)F)CNC3=O)c(C3CCOCC3)nc2n1)C1CCC(F)(F)CC1)c1ccnn1C(F)F [Compound 185, N-((1S)-(4,4-difluorocyclohexyl)(2-(((3R,5R)-2-oxo-5-(trifluoromethyl)piperidin-3-yl)methyl)-3-(tetrahydro-2H-pyran-4-yl)imidazo[1,2-b][1,2,4]triazin-6-yl)methyl)-1-(difluoromethyl)-1H-pyrazole-5-carboxamide]"
< 100,100 to 1000,"CCn1nccc1C(=O)N[C@H](c1cn2nc(C[C@H]3C[C@@H](C(F)(F)F)CNC3=O)c(CC3CCCO3)nc2n1)C1CCC(F)(F)CC1 (stereo partly drawn) [Compound 171, N-((1S)-(4,4-difluorocyclohexyl)(2-(((3R,5R)-2-oxo-5-(trifluoromethyl)piperidin-3-yl)methyl)-3-((tetrahydrofuran-2-yl)methyl)imidazo[1,2-b][1,2,4]triazin-6-yl)methyl)-1-ethyl-1H-pyrazole-5-carboxamide]"
< 100,> 1000,CCn1nccc1C(=O)N[C@H](c1cn2nc(C[C@H]3C[C@@H](C)CNC3=O)c(C3CCOCC3)nc2n1)C1CCC(F)(F)CC1 [Compound 303]
100 to 1000,> 1000,"Cc1nonc1C(=O)N[C@H](c1cn2nc(C[C@H]3C[C@@H](C(F)(F)F)CNC3=O)c(C3CCOCC3)nc2n1)[C@H]1C[C@H]2C[C@H]2C1 [Compound 316, N—((S)-((1R,3r,5S)-bicyclo[3.1.0]hexan-3-yl)(2-(((3R,5R)-2-oxo-5-(trifluoromethyl)piperidin-3-yl)methyl)-3-(tetrahydro-2H-pyran-4-yl)imidazo[1,2-b][1,2,4]triazin-6-yl)methyl)-4-methyl-1,2,5-oxadiazole-3-carboxamide]"
100 to 1000,> 1000,"CCn1nccc1C(=O)N[C@H](c1cn2nc(C[C@H]3C[C@@H](C(F)(F)F)CNC3=O)c(CN(C)C)nc2n1)C1CCC(F)(F)CC1 [Compound 287, N—((S)-(4,4-difluorocyclohexyl)(3-((dimethylamino)methyl)-2-(((3R,5R)-2-oxo-5-(trifluoromethyl)piperidin-3-yl)methyl)imidazo[1,2-b][1,2,4]triazin-6-yl)methyl)-1-ethyl-1H-pyrazole-5-carboxamide]"
< 100,100 to 1000,"CCn1nccc1C(=O)N[C@H](c1cn2nc(C[C@H]3C[C@@H](C(F)(F)F)CNC3=O)c(CN3CC(C(F)(F)F)C3)nc2n1)C1CCC(F)(F)CC1 [Compound 336, N—((S)-(4,4-difluorocyclohexyl)(2-(((3R,5R)-2-oxo-5-(trifluoromethyl)piperidin-3-yl)methyl)-3-((3-(trifluoromethyl)azetidin-1-yl)methyl)imidazo[1,2-b][1,2,4]triazin-6-yl)methyl)-1-ethyl-1H-pyrazole-5-carboxamide]"
< 100,> 1000,"Cn1nccc1C(=O)N[C@H](c1cn2nc(C[C@H]3C[C@@H](C(F)(F)F)CNC3=O)c(C3(C)CCOCC3)nc2n1)C1CCC(F)(F)CC1 [Compound 280, N—((S)-(4,4-difluorocyclohexyl)(3-(4-methyltetrahydro-2H-pyran-4-yl)-2-(((3R,5R)-2-oxo-5-(trifluoromethyl)piperidin-3-yl)methyl)imidazo[1,2-b][1,2,4]triazin-6-yl)methyl)-1-methyl-1H-pyrazole-5-carboxamide]"
100 to 1000,> 1000,"C[C@H]1CC[C@H]([C@H](NC(=O)C2(F)CC2)c2cn3nc(CC4C[C@@H](C(F)(F)F)CNC4=O)c(N4CCOCC4)nc3n2)CC1 (single isomer, unassigned) [Compound 120]"
< 100,> 1000,CCn1nccc1C(=O)N[C@H](c1cn2nc(C[C@@H]3CCCNC3=O)c(C3CCOCC3)nc2n1)C1CCC(F)(F)CC1 [Compound 380]
< 100,100 to 1000,"CC(C)n1nccc1C(=O)N[C@H](c1cn2nc(CC3C[C@@H](C(F)(F)F)CNC3=O)c(N3CC4CC(C3)O4)nc2n1)[C@@H]1CCCC(F)(F)C1 (single isomer, unassigned) [Compound 129]"
< 100,100 to 1000,"CCn1nccc1C(=O)N[C@H](c1cn2nc(C[C@H]3C[C@@H](C(F)(F)F)CNC3=O)c(CC3CCCOC3)nc2n1)C1CCC(F)(F)CC1 (stereo partly drawn) [Compound 213, N-((1S)-(4,4-difluorocyclohexyl)(2-(((3R,5R)-2-oxo-5-(trifluoromethyl)piperidin-3-yl)methyl)-3-((tetrahydro-2H-pyran-3-yl)methyl)imidazo[1,2-b][1,2,4]triazin-6-yl)methyl)-1-ethyl-1H-pyrazole-5-carboxamide]"
< 100,> 1000,Cn1ncnc1C(=O)N[C@H](c1cn2nc(C[C@H]3C[C@@H](C(F)(F)F)CNC3=O)c(C3CCOCC3)nc2n1)C1CCC(F)(F)CC1 [Compound 228]
